Entries after “also recorded” stand apart in the source; their conditions may differ.
Experiments:
HDAC7 = molecular target: T1, HDAC7 (Homo sapiens, UniProt Q8WUI4); assay: HDAC activity assay (fluorimetric, BPS Biosciences); type: biochemical; settings: class IIa in Table 4; mean ± SD (n = 2)
T1 construct: purchased BPS Biosciences
T1 sequence (Q8WUI4 1-952): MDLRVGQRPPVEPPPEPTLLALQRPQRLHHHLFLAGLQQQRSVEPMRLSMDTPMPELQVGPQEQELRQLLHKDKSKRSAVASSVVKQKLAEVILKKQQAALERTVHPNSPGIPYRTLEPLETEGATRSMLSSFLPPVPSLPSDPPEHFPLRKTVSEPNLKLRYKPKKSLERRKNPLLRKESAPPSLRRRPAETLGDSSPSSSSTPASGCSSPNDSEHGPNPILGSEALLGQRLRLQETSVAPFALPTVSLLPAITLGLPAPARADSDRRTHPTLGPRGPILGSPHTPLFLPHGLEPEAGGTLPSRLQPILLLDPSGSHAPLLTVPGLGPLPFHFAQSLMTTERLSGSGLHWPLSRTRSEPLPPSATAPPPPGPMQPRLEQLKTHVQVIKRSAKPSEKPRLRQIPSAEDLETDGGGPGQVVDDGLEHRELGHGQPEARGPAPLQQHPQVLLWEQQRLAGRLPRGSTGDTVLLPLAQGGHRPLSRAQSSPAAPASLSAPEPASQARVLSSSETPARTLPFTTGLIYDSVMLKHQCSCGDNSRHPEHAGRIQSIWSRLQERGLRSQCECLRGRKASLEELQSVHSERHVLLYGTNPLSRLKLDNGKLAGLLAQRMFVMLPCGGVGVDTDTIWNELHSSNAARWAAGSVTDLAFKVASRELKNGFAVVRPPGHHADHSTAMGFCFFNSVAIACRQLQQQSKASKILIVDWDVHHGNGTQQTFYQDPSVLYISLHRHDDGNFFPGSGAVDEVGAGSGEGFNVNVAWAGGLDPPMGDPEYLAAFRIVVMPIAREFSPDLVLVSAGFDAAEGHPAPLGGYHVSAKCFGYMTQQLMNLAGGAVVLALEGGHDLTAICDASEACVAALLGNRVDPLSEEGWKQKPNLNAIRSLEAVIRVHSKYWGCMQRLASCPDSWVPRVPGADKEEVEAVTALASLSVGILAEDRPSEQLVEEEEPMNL
Protocol: (§1) HDAC1, 3, 6 and 7 activity assays were performed according to the manufacturer’s protocol (BPS Biosciences). […] The HDAC assay developer was added to the mixture and incubated the plate at rt for 15 min. The fluorescence intensity was measured using a Tecan Infinite F200 Pro plate reader.

HDAC6 = molecular target: T2, HDAC6 (Homo sapiens, UniProt Q9UBN7); assay: as above; type: biochemical; settings: class IIb in Table 4; mean ± SD (n = 2)
T2 construct: purchased BPS Biosciences
T2 sequence (Q9UBN7 1-1215): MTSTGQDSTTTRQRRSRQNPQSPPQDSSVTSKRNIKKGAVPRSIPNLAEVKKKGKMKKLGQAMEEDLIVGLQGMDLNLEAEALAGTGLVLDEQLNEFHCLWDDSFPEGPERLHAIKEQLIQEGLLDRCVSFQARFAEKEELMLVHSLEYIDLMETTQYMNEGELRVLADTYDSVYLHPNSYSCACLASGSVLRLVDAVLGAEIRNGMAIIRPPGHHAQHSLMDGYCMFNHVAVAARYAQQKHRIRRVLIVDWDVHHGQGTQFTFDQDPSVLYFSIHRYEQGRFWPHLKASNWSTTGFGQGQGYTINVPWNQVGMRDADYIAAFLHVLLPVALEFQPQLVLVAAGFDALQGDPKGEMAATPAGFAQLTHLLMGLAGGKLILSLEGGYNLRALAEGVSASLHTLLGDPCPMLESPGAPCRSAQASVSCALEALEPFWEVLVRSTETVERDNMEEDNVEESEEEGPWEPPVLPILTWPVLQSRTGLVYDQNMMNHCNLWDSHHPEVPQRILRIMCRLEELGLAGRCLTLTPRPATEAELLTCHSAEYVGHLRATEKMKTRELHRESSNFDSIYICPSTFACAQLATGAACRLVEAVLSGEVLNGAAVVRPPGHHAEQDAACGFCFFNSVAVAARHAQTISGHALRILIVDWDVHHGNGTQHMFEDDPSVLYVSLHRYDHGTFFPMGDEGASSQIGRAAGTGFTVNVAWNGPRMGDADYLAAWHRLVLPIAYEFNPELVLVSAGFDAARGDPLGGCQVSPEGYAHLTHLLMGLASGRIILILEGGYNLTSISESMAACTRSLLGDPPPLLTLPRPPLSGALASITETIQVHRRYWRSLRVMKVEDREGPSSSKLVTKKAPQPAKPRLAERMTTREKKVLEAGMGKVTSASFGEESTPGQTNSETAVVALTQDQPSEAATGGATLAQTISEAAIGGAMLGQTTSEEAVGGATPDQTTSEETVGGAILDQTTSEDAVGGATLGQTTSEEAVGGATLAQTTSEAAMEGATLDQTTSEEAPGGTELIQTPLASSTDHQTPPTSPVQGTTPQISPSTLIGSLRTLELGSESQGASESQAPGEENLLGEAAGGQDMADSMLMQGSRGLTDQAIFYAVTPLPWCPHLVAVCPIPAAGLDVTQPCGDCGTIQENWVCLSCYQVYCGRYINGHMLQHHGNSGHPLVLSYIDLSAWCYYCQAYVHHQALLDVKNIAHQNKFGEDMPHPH
Protocol: as §1

HDAC1 = molecular target: T3, HDAC1 (Homo sapiens, UniProt Q13547); assay: as above; type: biochemical; settings: class I; mean ± SD (n = 2)
T3 construct: purchased BPS Biosciences
Protocol: as §1

Ac-α-tubulin = assay: Western blot of acetylation status in SH-SY5Y cells; type: cell-based, human; settings: 24 h, 0.5 to 5 μM
Protocol: (§2) Cells were seeded in 100 mm culture dishes (1 × 10^6 cells/dish), and allowed to attach overnight. Inhibitors were added at the concentrations as indicated and the cells were incubated for an additional 24 hours. For comparison, cells were also incubated with DMSO (0.5%) for 24 hours. Cells were harvested in ice-cold lysis buffer (23 mM Tris-HCl pH 7.6, 130 mM NaCl, 1% NP-40, 1% sodium deoxycholate, 0.1% SDS), and 30 µg of lysate per lane was separated by SDS-PAGE and followed by transferring to a PVDF membrane (Bio-Rad). The membrane was blocked with 5% skim milk in TBST, and then incubated with the corresponding antibody (Ac-α-tubulin, α-tubulin, Ac-Histone H3, Histone H3 or β-actin). After binding of an appropriate secondary antibody coupled to horseradish peroxidase, proteins were visualized by ECL chemiluminescence according to the instructions of the manufacturer (GE healthcare, USA).

Ac-Histone H3 = assay: as above; type: cell-based, human; settings: 24 h, 0.5 to 5 μM
Protocol: as §2

SH-SY5Y cells = assay: Soft agar colony formation assay; type: cell-based, human; settings: 3 weeks, 3 μM
Protocol: Cells (10^4 cells/well) were seeded in 6 well plate with 1.2% agar. After 12 h incubation, cells were treated with the indicated concentrations of compound 9b or DMSO at 37 °C in 5% humidified CO2 for 3 weeks with continuously changing medium every week. After medium was thrown away, colonies were stained with 0.05% crystal violet for 10 min.

T3 sequence (Q13547 whole entry): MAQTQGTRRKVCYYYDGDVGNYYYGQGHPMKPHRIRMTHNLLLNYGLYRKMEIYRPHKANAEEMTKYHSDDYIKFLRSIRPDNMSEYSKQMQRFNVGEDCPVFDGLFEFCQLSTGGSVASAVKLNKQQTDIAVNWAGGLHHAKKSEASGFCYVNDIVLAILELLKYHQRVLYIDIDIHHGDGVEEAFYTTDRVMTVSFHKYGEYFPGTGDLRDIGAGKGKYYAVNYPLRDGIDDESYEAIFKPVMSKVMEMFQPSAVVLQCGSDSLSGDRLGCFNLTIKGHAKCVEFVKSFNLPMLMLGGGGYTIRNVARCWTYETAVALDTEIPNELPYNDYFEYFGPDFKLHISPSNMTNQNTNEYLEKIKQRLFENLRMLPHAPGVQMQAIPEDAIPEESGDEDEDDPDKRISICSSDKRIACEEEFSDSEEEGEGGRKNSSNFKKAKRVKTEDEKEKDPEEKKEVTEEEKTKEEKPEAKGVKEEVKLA

IC50 (HDAC7): 3040 nM
IC50 (HDAC6): 95.9 ± 0.78 nM
IC50 (HDAC1): 84.9 ± 25.1 nM
SMILES: O=C(NO)c1ccc(-c2nc3ccccc3s2)cc1 [Compound 9b]
acetylation status of α-tubulin (Ac-α-tubulin): more efficiently promoted the acetylation of Histone H3 and α-tubulin than compound 9a; also recorded: dose-dependently increased
acetylation status of Histone H3 (Ac-Histone H3): more efficiently promoted the acetylation of Histone H3 and α-tubulin than compound 9a; also recorded: significantly induced the accumulation of acetylated Histone H3
anchorage-independent cell growth (colony formation) (SH-SY5Y cells): almost completely inhibited

Source: PMC6742641, “Design, synthesis and biological evaluation of a series of CNS penetrant HDAC inhibitors structurally derived from amyloid-β probes” (Scientific Reports, 2019)
